Where only a bound is given, the exact number is not on record here.

For experiment [1], the target named is T1, SSTR4 (Homo sapiens, UniProt P31391).
T1 construct: host or cells: CHO-K1
The experiment in a line: Inhibition of forskolin stimulated cAMP in CHO-K1 cells overexpressing SSTR4. The format is cell-based. Conditions: read-out: SSTR4 Activity pEC50 (converted). The procedure, abridged:
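CHO-K1 cells overexpressing SSTR4 treated 30 min at room temperature with compound in Krebs Ringer buffer containing 0.5% BSA, 300 μM IBMX and 350 nM forskolin. Intracellular cAMP measured by HTRF LANCE Ultra (665/615 nm); pEC50 values reported.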

Experiment [2] deals with T1, SSTR4. The experiment in a line: SSTR4 I-125 somatostatin competition binding assay (CHO-K1 membranes). The note with it: competition with I-125 somatostatin, membranes from CHO-K1 overexpressing SSTR4; read-out: SSTR4 Binding pIC50 (converted). The procedure, abridged: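 CHO-K1 membranes overexpressing SSTR4 (1 μg/well) were incubated 60 min at room temperature with compound and I-125 somatostatin (0.2 nM in the compound mix) in 25 mM HEPES pH 7.4, 10 mM MgCl2, 1 mM CaCl2, 0.5% BSA. Bound radioligand was collected on PEI-soaked filters and scintillation-counted, with results reported as pIC50.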

The next experiment deals with T2, SSTR1 (Homo sapiens, UniProt P30872).
T2 construct: purchased Perkin Elmer ES-520-M400UA; host or cells: CHO-K1 membranes
T2 sequence (P30872 whole entry): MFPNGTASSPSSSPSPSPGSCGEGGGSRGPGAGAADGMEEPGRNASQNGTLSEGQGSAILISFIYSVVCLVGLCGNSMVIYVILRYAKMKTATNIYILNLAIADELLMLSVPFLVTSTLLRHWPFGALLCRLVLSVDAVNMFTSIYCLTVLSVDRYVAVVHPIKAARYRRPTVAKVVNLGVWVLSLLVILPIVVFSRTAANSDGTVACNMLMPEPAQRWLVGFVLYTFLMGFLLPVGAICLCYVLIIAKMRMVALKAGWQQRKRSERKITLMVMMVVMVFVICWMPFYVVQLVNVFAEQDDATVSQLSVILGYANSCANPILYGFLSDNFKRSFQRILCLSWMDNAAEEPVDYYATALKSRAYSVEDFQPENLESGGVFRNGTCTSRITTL
In words: SSTR1 I-125 somatostatin competition binding assay for selectivity versus SSTR1 (CHO-K1 membranes). The note with it: competition with I-125 somatostatin, membranes from CHO-K1 overexpressing SSTR1; read-out: SSTR1 Binding pIC50 (converted). Put shortly: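 Competition binding used 10 μg CHO-K1 SSTR1 membranes and I-125 somatostatin, 0.4 nM in the compound mix before membranes were added. Buffer was 25 mM HEPES pH 7.4, 10 mM MgCl2, 1 mM CaCl2, 0.5% BSA. After 60 min at room temperature, bound tracer was filtered onto PEI-soaked filters and counted by scintillation; values are pIC50.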

T1 sequence (P31391 whole entry): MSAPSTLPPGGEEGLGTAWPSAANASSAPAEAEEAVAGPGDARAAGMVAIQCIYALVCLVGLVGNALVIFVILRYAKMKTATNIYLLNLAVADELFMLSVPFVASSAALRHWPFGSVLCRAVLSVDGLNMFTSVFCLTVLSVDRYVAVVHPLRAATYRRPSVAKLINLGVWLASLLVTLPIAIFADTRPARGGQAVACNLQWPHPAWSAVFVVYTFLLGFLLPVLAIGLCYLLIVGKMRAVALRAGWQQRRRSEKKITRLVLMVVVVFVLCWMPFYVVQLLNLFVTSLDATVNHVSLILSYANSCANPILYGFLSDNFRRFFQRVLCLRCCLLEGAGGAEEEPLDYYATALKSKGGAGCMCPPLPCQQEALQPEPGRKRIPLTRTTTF

As for `Cc1cccc(OCC(C)(C)NC(=O)C[C@@H]2CCCN2C)n1` [Example 104, (S)-N-(2-methyl-1-((6-methylpyridin-2-yl)oxy)propan-2-yl)-2-(1-methylpyrrolidin-2-yl)acetamide], the EC50 at SSTR4 [1] is 100 nM. The values for the IC50 on SSTR4 [2] and at SSTR1 were 2000 nM and 39800 nM, respectively.

On to `COc1c(Cl)cccc1C(C)(C)NC(=O)C[C@@H]1CCCN1C` [Example 112, (S)-N-(2-(3-chloro-2-methoxyphenyl)propan-2-yl)-2-(1-methylpyrrolidin-2-yl)acetamide], for which the EC50 at SSTR4 [1] was 79.4 nM. Moreover, the IC50 was 501 nM on SSTR4 [2] and > 50100 nM at SSTR1.

Turning to `Cc1c(Cl)cccc1C(C)(C)NC(=O)C[C@@H]1CCCN1C` [Example 118, (S)-N-(2-(3-chloro-2-methylphenyl)propan-2-yl)-2-(1-methylpyrrolidin-2-yl)acetamide], the EC50 at SSTR4 [1] was 79.4 nM. For the same molecule, the IC50 at SSTR4 [2] is 398 nM; on SSTR1 it was 39800 nM.

Consider `Cc1c(Cl)cccc1C(C)(C)NC(=O)C[C@H]1CCCN1C` [Example 119, (R)-N-(2-(3-chloro-2-methylphenyl)propan-2-yl)-2-(1-methylpyrrolidin-2-yl)acetamide], for which, at SSTR4 [1], the EC50 was 15.8 nM. In addition, the IC50 on SSTR4 [2] is 251 nM; on SSTR1 it was 20000 nM.

For `CC(CN1CCC1)C(=O)NC(C)(C)c1ccccc1Cl` (stereo not drawn) [Example 132, 3-(azetidin-1-yl)-N-(2-(2-chlorophenyl)propan-2-yl)-2-methylpropanamide], at SSTR4 [1], the EC50 was 7.94 nM. In addition, the figures for the IC50 on SSTR4 [2] and at SSTR1 were 79.4 nM and 20000 nM, respectively.

For the molecule `CC(CN1CCCC1)C(=O)NC(C)(C)c1ccccc1Cl` (stereo not drawn) [Example 135, N-(2-(2-chlorophenyl)propan-2-yl)-2-methyl-3-(pyrrolidin-1-yl)propanamide], the EC50 at SSTR4 [1] is 10 nM. Moreover, the IC50 at SSTR4 [2] is 158 nM; at SSTR1, 15800 nM.

As to `CN1CCC[C@H]1CC(=O)NC(C)(C)c1ccccc1F` [Example 160, (S)-N-(2-(2-fluorophenyl)propan-2-yl)-2-(1-methylpyrrolidin-2-yl)acetamide], the EC50 at SSTR4 [1] is 158 nM. The IC50 is 1000 nM at SSTR4 [2] and > 50100 nM on SSTR1.

As to `Cc1cccc(C(C)(C)NC(=O)CCN2CCC2)c1Cl` [Example 161, 3-(azetidin-1-yl)-N-(2-(2-chloro-3-methylphenyl)propan-2-yl)propanamide], the EC50 at SSTR4 [1] was 3.98 nM. Also, the IC50 at SSTR4 [2] was 50.1 nM; at SSTR1, 6310 nM.

For the molecule `Cc1cccc(C(C)(C)NC(=O)CCN2CCC2)c1` [Example 162, 3-(azetidin-1-yl)-N-(2-(m-tolyl)propan-2-yl)propanamide], the EC50 on SSTR4 [1] was 7.94 nM. Further, the IC50 was 79.4 nM at SSTR4 [2] and 25100 nM on SSTR1.

For the molecule `CC(C)(NC(=O)CCN1CCC1)c1cccc(F)c1` [Example 163, 3-(azetidin-1-yl)-N-(2-(3-fluorophenyl)propan-2-yl)propanamide], at SSTR4 [1], the EC50 was 25.1 nM. The IC50 at SSTR4 [2] was 398 nM; on SSTR1 it was > 50100 nM.

Consider `CC(C)(NC(=O)CCN1CCC1)c1cccc(Cl)c1` [Example 164, 3-(azetidin-1-yl)-N-(2-(3-chlorophenyl)propan-2-yl)propanamide], for which the EC50 on SSTR4 [1] was 12.6 nM. Further, the IC50 at SSTR4 [2] is 39.8 nM; at SSTR1 it was 31600 nM.

As to `CC(C)(NC(=O)CCN1CCC1)c1ccc(Cl)cc1` [Example 165, 3-(azetidin-1-yl)-N-(2-(4-chlorophenyl)propan-2-yl)propanamide], the EC50 at SSTR4 [1] is 10 nM. For the same molecule, the figures for the IC50 on SSTR4 [2] and on SSTR1 were 79.4 nM and 25100 nM, respectively.

For the molecule `Cc1c(F)cccc1C(C)(C)NC(=O)CCN1CCC1` [Example 166, 3-(azetidin-1-yl)-N-(2-(3-fluoro-2-methylphenyl)propan-2-yl)propanamide], the EC50 at SSTR4 [1] was 12.6 nM. Also, the figures for the IC50 on SSTR4 [2] and at SSTR1 were 50.1 nM and 39800 nM, respectively.

Turning to `O=C(CCN1CCC1)NC(c1cc(F)ccc1F)C(F)F` (stereo not drawn) [Example 167, 3-(azetidin-1-yl)-N-(1-(2,5-difluorophenyl)-2,2-difluoroethyl)propanamide], the EC50 at SSTR4 [1] is 25.1 nM. Also, the IC50 is 251 nM at SSTR4 [2] and > 50100 nM at SSTR1.

Consider `COc1c(F)cccc1C(C)(C)NC(=O)C(C)CN1CCC1` (stereo not drawn) [Example 170, 3-(azetidin-1-yl)-N-(2-(3-fluoro-2-methoxyphenyl)propan-2-yl)-2-methylpropanamide], for which the EC50 at SSTR4 [1] is 0.794 nM. Further, the figures for the IC50 on SSTR4 [2] and at SSTR1 were 25.1 nM and 5010 nM, respectively.

In the case of `Cc1ccc(C(CF)NC(=O)CCN2CCC2)cc1` (stereo not drawn) [Example 173, 3-(azetidin-1-yl)-N-(2-fluoro-1-(p-tolyl)ethyl)propanamide], on SSTR4 [1], the EC50 was 20 nM. Moreover, the IC50 is 200 nM on SSTR4 [2] and > 50100 nM at SSTR1.

Take `CC(C)[C@@H](CN1CCC1)C(=O)N[C@@H](c1ccccc1)C(F)F` [Example 178, (S)-2-(azetidin-1-ylmethyl)-N-((S)-2,2-difluoro-1-phenylethyl)-3-methylbutanamide]: on SSTR4 [1], the EC50 was 39.8 nM. Besides, the IC50 on SSTR4 [2] was 39.8 nM; at SSTR1 it was 6310 nM.

For `CC(C)[C@@H](CN1CCC1)C(=O)N[C@H](c1ccccc1)C(F)F` [Example 179, (S)-2-(azetidin-1-ylmethyl)-N-((R)-2,2-difluoro-1-phenylethyl)-3-methylbutanamide], the EC50 on SSTR4 [1] is 0.2 nM. Further, the IC50 at SSTR4 [2] is 2 nM; on SSTR1 it was 251 nM.

For `CC[C@@H](CN1CCC1)C(=O)N[C@H](c1ccccc1)C(F)F` [Example 180, (S)-2-(azetidin-1-ylmethyl)-N-((R)-2,2-difluoro-1-phenylethyl)butanamide], at SSTR4 [1], the EC50 is 0.126 nM. Further, the IC50 on SSTR4 [2] was 3.16 nM; at SSTR1, 631 nM.

As for `COc1ccccc1[C@@H](NC(=O)[C@H](CN1CCC1)C(C)C)C(F)F` [Example 188, (S)-2-(azetidin-1-ylmethyl)-N-((R)-2,2-difluoro-1-(2-methoxyphenyl)ethyl)-3-methylbutanamide], the EC50 at SSTR4 [1] is 0.501 nM. Besides, the IC50 is 2 nM on SSTR4 [2] and 126 nM on SSTR1.

`CC[C@@H](CN1CCC1)C(=O)N[C@H](c1ccccc1OC)C(F)F` [Example 189, (S)-2-(azetidin-1-ylmethyl)-N-((R)-2,2-difluoro-1-(2-methoxyphenyl)ethyl)butanamide]: the EC50 on SSTR4 [1] was 1 nM. Moreover, the IC50 on SSTR4 [2] is 7.94 nM; on SSTR1, 631 nM.

With `CC(C)[C@@H](CN1CCC1)C(=O)N[C@H](c1cccc(F)c1)C(F)F` [Example 194, (S)-2-(azetidin-1-ylmethyl)-N-((R)-2,2-difluoro-1-(3-fluorophenyl)ethyl)-3-methylbutanamide], the EC50 at SSTR4 [1] was 0.794 nM. The IC50 on SSTR4 [2] is 2.51 nM; on SSTR1, 631 nM.

As to `CC[C@@H](CN1CCC1)C(=O)N[C@H](c1cccc(F)c1)C(F)F` [Example 195, (S)-2-(azetidin-1-ylmethyl)-N-((R)-2,2-difluoro-1-(3-fluorophenyl)ethyl)butanamide], on SSTR4 [1], the EC50 is 2 nM. The results for the IC50 at SSTR4 [2] and at SSTR1 were 2.51 nM and 1000 nM, respectively.

These data come from patent US20230150981A1, “N-HETEROARYLALKYL-2-(HETEROCYCLYL AND HETEROCYCLYLMETHYL) ACETAMIDE DERIVATIVES AS SSTR4 AGONISTS” (Takeda Pharmaceutical Compnay Limited, priority 2020, published 2023).
